From ChEMBL document CHEMBL5550126, “Identification of naphthalimide-derivatives as novel PBD-targeted polo-like kinase 1 inhibitors with efficacy in drug-resistant lung cancer cells” (Eur J Med Chem, 2024)
pIC50: −log10 of the molar value. Calls of active or inactive are those of the source. The rule behind the calls is not given here.

Experiments:
A549/CDDP [1] = experiment: Disruption of redox homeostasis in human A549/DDP cells assessed as reduction in GSH level at 0 to 9 uM measured after 48 hrs; format: functional, cell-based; settings: dose 0-9 µM
NCI-H460 = experiment: Anticancer activity against human NCI-H460 cells assessed as inhibition of cell growth incubated for 48 hrs by crystal violet staining based analysis; format: functional; settings: NCI-H460, 48 h
MCF7 = experiment: Anticancer activity against human MCF7 cells assessed as inhibition of cell growth incubated for 48 hrs by crystal violet staining based analysis; format: functional; settings: MCF7, 48 h
A549/CDDP [2] = experiment: Induction of cell cycle arrest at G2/M phase in human A549/DDP cells at 0 to 15 uM measured after 48 hrs by RNase A/PI staining based flow cytometry analysis; format: functional; settings: dose 0-15 µM
A549 [3] = experiment: Induction of morphological changes in human A549 cells assessed as increase in mitotic catastrophe in nucleus at 0 to 3 uM measured after 48 hrs by immunofluorescence based laser confocal microscopic analysis; format: functional, cell-based; settings: dose 0-3 µM
A549 [4] = experiment: Anticancer activity against human A549 cells assessed as inhibition of cell growth incubated for 48 hrs by crystal violet staining based analysis; format: functional; settings: A549, 48 h
[5] = biological target: T1, Serine/threonine-protein kinase PLK1 (Homo sapiens, UniProt P53350); experiment: Binding affinity to recombinant PLK1 (unknown origin) assessed as signal attenuation at 200 uM by NMR analysis
T1 sequence (P53350 whole entry): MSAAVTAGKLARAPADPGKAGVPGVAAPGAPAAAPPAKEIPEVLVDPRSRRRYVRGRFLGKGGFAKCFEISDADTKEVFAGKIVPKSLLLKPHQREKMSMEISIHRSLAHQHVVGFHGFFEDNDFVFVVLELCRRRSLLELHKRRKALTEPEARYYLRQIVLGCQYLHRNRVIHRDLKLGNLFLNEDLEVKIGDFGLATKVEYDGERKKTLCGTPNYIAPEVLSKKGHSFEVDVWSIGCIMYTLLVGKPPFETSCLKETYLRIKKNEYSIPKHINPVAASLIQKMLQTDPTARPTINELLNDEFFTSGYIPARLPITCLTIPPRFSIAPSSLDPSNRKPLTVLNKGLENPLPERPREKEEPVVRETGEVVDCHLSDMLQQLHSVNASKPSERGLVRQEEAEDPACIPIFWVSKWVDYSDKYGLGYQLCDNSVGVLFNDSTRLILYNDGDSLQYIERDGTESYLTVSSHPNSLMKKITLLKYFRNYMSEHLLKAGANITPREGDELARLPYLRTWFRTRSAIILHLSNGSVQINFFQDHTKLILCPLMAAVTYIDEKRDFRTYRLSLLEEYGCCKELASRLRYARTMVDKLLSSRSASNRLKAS

[6] = biological target: T1, Serine/threonine-protein kinase PLK1; experiment: Binding affinity to PLK1 in human A549/DDP intact cells assessed as thermal stabilization at 3 uM at 44 to 64 degreeC incubated for 2 hrs by CETSA; format: cell-based
[7] = biological target: T1, Serine/threonine-protein kinase PLK1; experiment: Binding affinity to PLK1 in human A549/DDP cell lysates assessed as thermal stabilization at 20 uM at 44 to 64 degreeC incubated for 2 hrs by CETSA; format: subcellular; settings: Lysate
[8] = biological target: T1, Serine/threonine-protein kinase PLK1; experiment: Binding affinity to FLAG-tagged PLK1 PBD region (unknown origin) transfected in human A549 cells at 10 uM incubated for 1 hr by coimmunoprecipitation-MS analysis; format: cell-based
A549/CDDP [9] = experiment: Effect on c-Myc protein expression in human A549/DDP cells assessed as effect on protein abundance at 0 to 6 uM measured after 48 hrs by Western blot analysis; format: functional, cell-based; settings: dose 0-6 µM
A549/CDDP [10] = experiment: Effect on cyclin A2 protein expression in human A549/DDP cells assessed as effect on protein abundance at 0 to 6 uM measured after 48 hrs by Western blot analysis; format: functional, cell-based; settings: dose 0-6 µM
A549/CDDP [11] = experiment: Effect on p-CDK2 protein expression in human A549/DDP cells assessed as effect on protein abundance at 0 to 6 uM measured after 48 hrs by Western blot analysis; format: functional, cell-based; settings: dose 0-6 µM
A549/CDDP [12] = experiment: Effect on p21 protein expression in human A549/DDP cells assessed as effect on protein abundance at 0 to 6 uM measured after 48 hrs by Western blot analysis; format: functional, cell-based; settings: dose 0-6 µM
A549 [13] = experiment: Induction of mitotic catastrophe in human A549 cells assessed as appearance of multinucleated cells during mitosis at 1.5 uM measured after 48 hrs by immunostaining based laser confocal microscopic analysis; format: functional, cell-based
A549 [14] = experiment: Induction of mitotic catastrophe in human A549 cells assessed as reduction in PRC1 recruitment by PLK1 in anaphase at 1.5 to 3 uM measured after 48 hrs by immunostaining based laser confocal microscopic analysis; format: functional, cell-based; settings: dose 1.5-3 µM
A549 [15] = experiment: Induction of mitotic catastrophe in human A549 cells assessed as downregulation of CDK1-cyclin B1 complex protein expression at 1.5 to 6 uM measured after 48 hrs by Western blot analysis; format: functional, cell-based; settings: dose 1.5-6 µM
[16] = GSH reactivity of compound in PBS assessed as increase in fluorogenic response at 5 uM measured after 0 to 24 hrs by fluorescence spectrophotometer; format: physicochemical; settings: buffer, time 0-24 hrs
[17] = Binding affinity to cysteine in PBS assessed as increase in fluorogenic response at 5 uM by UV lamp irradiation/fluorescence spectrophotometer
[18] = GSH reactivity in human A549/DDP cells assessed as increase in fluorescence intensity measured after 48 hrs; format: ADME, cell-based; settings: dose 0-9 µM
A549/CDDP [19] = experiment: Antitumor activity against human A549/DDP cells assessed as male BALB/c nude mouse assessed as median survival time at 50 mg/kg, ip administered every 2 days for 32 days (reference value: 38 days); format: functional; settings: time 32 day
A549/CDDP [20] = experiment: Antitumor activity against human A549/DDP cells assessed as male BALB/c nude mouse assessed as reduction in cell proliferation by measuring reduction in […] positive cells in tumor at 30 to 50 mg/kg, ip administered every 2 days for 32 days by immunohistochemistry; format: functional, organism-based; settings: dose 30-50 mg/kg, time 32.0 day
[21] = Toxicity in male BALB/c nude mouse xenografted with human A549/DDP cells assessed as change in heart index at 30 mg/kg, ip administered every 2 days for 32 days; format: organism-based, A549/CDDP; settings: in vivo, 768 h, time 32 day
[22] = Toxicity in male BALB/c nude mouse xenografted with human A549/DDP cells assessed as change in kidney index at 30 to 50 mg/kg, ip administered every 2 days for 32 days; format: organism-based, A549/CDDP; settings: in vivo, 768 h, dose 30-50 mg/kg, time 32 day
[23] = Toxicity in male BALB/c nude mouse xenografted with human A549/DDP cells assessed as heart damage at 30 to 50 mg/kg, ip administered every 2 days for 32 days by H and E staining based analysis; format: organism-based, A549/CDDP; settings: in vivo, 768 h, dose 30-50 mg/kg, time 32 day
[24] = Toxicity in male BALB/c nude mouse xenografted with human gefitinib resistant NCI-H1975 cells assessed as reduction in body weight at 30 mg/kg, po administered every 2 days for 20 days and measured 3 times a week; format: organism-based; settings: in vivo, 480 h, time 20 day
[25] = Toxicity in male BALB/c nude mouse xenografted with human gefitinib resistant NCI-H1975 cells assessed as kidney damage at 30 mg/kg, po administered every 2 days for 20 days and measured 3 times a week by H and E staining based analysis; format: organism-based; settings: in vivo, 480 h, time 20 day

With `CN(C)CCN1C(=O)c2cccc3c(S(=O)(=O)NCc4ccc(F)cc4)ccc(c23)C1=O` as the molecule, how does the Activity (A549/CDDP [1]) read?
The Activity was “Active”.

And the pIC50 (NCI-H460)?
The pIC50 was 5.64.

What about the pIC50 (MCF7) of the same molecule?
Its pIC50 is 5.18.

And the Activity (A549/CDDP [2])?
Its Activity is “Active”.

And the Activity (A549 [3])?
Its Activity is “Active”.

What about the pIC50 (A549 [4]) of the same molecule?
Its pIC50 is 4.98.

What about the Activity [5] of the same molecule?
Its Activity is “Active”.

What about the Activity [6] of the same molecule?
Its Activity is “Active”.

What about the Activity [7] of the same molecule?
The Activity was “Active”.

And the Activity [8]?
Its Activity is “Active”.

And the Activity (A549/CDDP [9])?
Its Activity is “Active”.

What about the Activity (A549/CDDP [10]) of the same molecule?
The Activity was “Active”.

And the Activity (A549/CDDP [11])?
Its Activity is “Active”.

What about the Activity (A549/CDDP [12]) of the same molecule?
The Activity was “Active”.

And the Activity (A549 [13])?
The Activity was “Active”.

And the Activity (A549 [14])?
The Activity was “Active”.

What about the Activity (A549 [15]) of the same molecule?
The Activity was “Active”.

What about the Drug metabolism [16] of the same molecule?
Its Drug metabolism is “Metabolite_Detected”.

And the Activity [17]?
Its Activity is “inactive”.

What about the Drug metabolism [18] of the same molecule?
Its Drug metabolism is “Metabolite_Detected”.

What about the MSD (A549/CDDP [19]) of the same molecule?
The MSD was 62 days.

And the Activity (A549/CDDP [20])?
Its Activity is “Active”.

And the Activity [21]?
The Activity was “Toxic”.

What about the Activity [22] of the same molecule?
Its Activity is “Non-Toxic”.

What about the Activity [23] of the same molecule?
The Activity was “Non-Toxic”.

And the Activity [24]?
Its Activity is “Non-Toxic”.

And the Activity [25]?
Its Activity is “Non-Toxic”.
